Legend:
CYP3A4 = conditions: cited from earlier work
[1] = Phase I 3 + 3 dose escalation and expansion: DLT, MTD and RP2D; format: in vivo, human; conditions: extensive CYP2C19 metabolizers
clinical = conditions: human, in vivo
[2] = cited from earlier work
hepatocellular carcinoma = conditions: patients with hepatocellular carcinoma, p=0.04, cited from earlier work
CYP2C19 and CYP3A4/5 = conditions: cited from earlier work

| SMILES | metabolizing enzymes (CYP3A4) | MTD and RP2D, temsirolimus ([1]; intravenous, in combination with tivantinib) | AUC0–∞, ratio (%) geometric means (clinical) | Cmax, ratio (%) geometric means (clinical) | AUC(0-inf) (clinical; AUC0–∞, geometric mean) | Cmax (clinical; Cmax, geometric mean) | MTD and RP2D, tivantinib ([1]; oral, in combination with temsirolimus) | Dose adjusted AUC0–12, geometric mean (clinical) | Dose adjusted Cmax, geometric mean (clinical) | RP2D in CYP2C19 poor metabolizers [2] | time to progression, HR vs placebo (hepatocellular carcinoma; 90% CI 0.43–0.94) | time to progression (hepatocellular carcinoma; placebo 1.4 months) | metabolizing enzymes (CYP2C19 and CYP3A4/5) |
| --- | --- | --- | --- | --- | --- | --- | --- | --- | --- | --- | --- | --- | --- |
| CO[C@H]1C[C@@H]2CC[C@@H](C)[C@@](O)(O2)C(=O)C(=O)N2CCCC[C@H]2C(=O)O[C@H]([C@H](C)C[C@@H]2CC[C@@H](OC(=O)C(C)(CO)CO)[C@H](OC)C2)CC(=O)[C@H](C)/C=C(\C)[C@@H](O)[C@@H](OC)C(=O)[C@H](C)C[C@H](C)/C=C/C=C/C=C/1C [temsirolimus] | primarily metabolized by CYP3A4 | 20 mg weekly | 1.09% | 0.94% | 1340 ng·h/mL | 363 ng/mL | – | – | – | – | – | – | – |
| O=C1NC(=O)[C@@H](c2cn3c4c(cccc24)CCC3)[C@@H]1c1c[nH]c2ccccc12 [tivantinib] | – | – | – | – | – | – | 240 mg twice daily | 67.78 ng·h/mL/mg | 9.27 ng/mL/mg | 240 mg twice daily | 0.64 | 1.6 months | metabolized primarily by CYP2C19 and partially by CYP3A4/5 |

Source: paper PMC5809175 (Investigational new drugs, 2016)
